Experimental data from patent publication US12102089B2, “Method for inactivating mold spores” (DSM IP ASSETS B.V., priority 2017, dated 2024).

Experiments:
[1] = test system: Paecilomyces variotti (ATCC 22319); experiment: Heat treatment of Paecilomyces variotti spores in ice tea with natamycin, visual growth; format: cell-based; set-up: key to growth (+) or no growth (−): growth (+); no growth (−)
Experimental: Commercially available ice tea (Lipton, peach flavor, non-carbonated, 1.5 L) was adjusted to high water hardness by adding 1 ml of a solution of 39 g CaCl2 and 27 g MgCl2 added to 934 g water. ⅓ of this ice tea preparation (the pH of which was 3.15) was left as-such, ⅓ of the preparation was enriched with 5 ppm natamycin and ⅓ of the preparation was enriched with 10 ppm natamycin. Samples of 5 ml were made from each preparation in 15 ml sterile plastic tubes. Of each preparation 8 samples were pre-heated to the desired pasteurization temperature using a water bath. Temperatures used were RT, 60, 65, 70, 75, 80, 85 and 90° C. When the desired temperature was reached, 100 μl of a 2500 spores/ml spore suspension of Aspergillus niger ATCC 9029AA was added to each tube. Subsequently, the samples were kept for 30 seconds at the temperature in question in the water bath. Next, the samples were cooled on ice to a temperature of 25° C. Samples were incubated at 25° C. and visually examined for growth (formation of mold flakes or turbidity) for two months. Additionally, samples were enumerated according to ISO protocol 21527-1.2008 on day 0 (before heat treatment) and day 1 (after heat treatment) to count immediate loss of viability. […] For the results, see Table 1. […] Example 1 was repeated however with Paecilomyces variotti (ATCC 22319, 1000 spores/ml) instead of Aspergillus niger.

[2] = LC-MS/MS analysis of natamycin and mycosamine in heated ice tea sample; format: physicochemical; settings: 10 ppm natamycin at t=0, heated at 70° C.
Experimental: For the analysis of mycosamine at low concentrations (ppb level) a sample preparation is used with a cation exchange SPE material to isolate mycosamine from the sample matrix and/or remove possible interfering impurities therefrom. The analysis was performed on LC-MS/MS on a ZIC-HILIC column. For the identification and (semi) quantification a reference of mycosamine was prepared. The concentration of mycosamine in this reference was determined with ^1H-NMR.

natamycin found in sample ([2]; Example 1 ice tea sample (pH 3.15)): < 0.04 mg/L
natamycin found in sample ([2]; Example 2 ice tea sample): < 0.04 mg/L
natamycin found in sample ([2]; Example 3 ice tea sample): < 0.04 mg/L
Structure (SMILES): C[C@@H]1C/C=C/C=C/C=C/C=C/[C@H](O[C@@H]2O[C@H](C)[C@@H](O)[C@H](N)[C@@H]2O)C[C@@H]2O[C@](O)(C[C@@H](O)C[C@H]3O[C@@H]3/C=C/C(=O)O1)C[C@H](O)[C@H]2C(=O)O [natamycin]
germination ([1]; 90° C., in the presence of natamycin): no germination occurred
germination ([1]; RT and 60° C., 5 or 10 ppm natamycin): delayed germination
growth (+) or no growth (−) ([1]; T 60, natamycin 5 ppm, day 1): −
growth (+) or no growth (−) ([1]; T 60, natamycin 5 ppm, day 2): −
growth (+) or no growth (−) ([1]; T 60, natamycin 5 ppm, day 3): −
growth (+) or no growth (−) ([1]; T 60, natamycin 5 ppm, day 4): −
growth (+) or no growth (−) ([1]; T 60, natamycin 5 ppm, day 5): −
growth (+) or no growth (−) ([1]; T 60, natamycin 5 ppm, day 6): −
growth (+) or no growth (−) ([1]; T 60, natamycin 5 ppm, day 7): −
growth (+) or no growth (−) ([1]; T 60, natamycin 5 ppm, day 8): −
growth (+) or no growth (−) ([1]; T 60, natamycin 5 ppm, day 9): −
growth (+) or no growth (−) ([1]; T 60, natamycin 5 ppm, day 10): +
growth (+) or no growth (−) ([1]; T 60, natamycin 5 ppm, day 11): +
growth (+) or no growth (−) ([1]; T 60, natamycin 5 ppm, day 12): +
growth (+) or no growth (−) ([1]; T 60, natamycin 5 ppm, day 13): +
growth (+) or no growth (−) ([1]; T 60, natamycin 5 ppm, day 14): +
growth (+) or no growth (−) ([1]; T 60, natamycin 5 ppm, day 15): +
growth (+) or no growth (−) ([1]; T 60, natamycin 5 ppm, day 16): +
growth (+) or no growth (−) ([1]; T 60, natamycin 5 ppm, day 17): +
growth (+) or no growth (−) ([1]; T 60, natamycin 5 ppm, day 50): +
growth (+) or no growth (−) ([1]; T 60, natamycin 10 ppm, day 1): −
growth (+) or no growth (−) ([1]; T 60, natamycin 10 ppm, day 2): −
growth (+) or no growth (−) ([1]; T 60, natamycin 10 ppm, day 3): −
growth (+) or no growth (−) ([1]; T 60, natamycin 10 ppm, day 4): −
growth (+) or no growth (−) ([1]; T 60, natamycin 10 ppm, day 5): −
growth (+) or no growth (−) ([1]; T 60, natamycin 10 ppm, day 6): −
growth (+) or no growth (−) ([1]; T 60, natamycin 10 ppm, day 7): −
growth (+) or no growth (−) ([1]; T 60, natamycin 10 ppm, day 8): −
growth (+) or no growth (−) ([1]; T 60, natamycin 10 ppm, day 9): −
growth (+) or no growth (−) ([1]; T 60, natamycin 10 ppm, day 10): −
growth (+) or no growth (−) ([1]; T 60, natamycin 10 ppm, day 11): −
growth (+) or no growth (−) ([1]; T 60, natamycin 10 ppm, day 12): −
growth (+) or no growth (−) ([1]; T 60, natamycin 10 ppm, day 13): −
growth (+) or no growth (−) ([1]; T 60, natamycin 10 ppm, day 14): +
growth (+) or no growth (−) ([1]; T 60, natamycin 10 ppm, day 15): +
growth (+) or no growth (−) ([1]; T 60, natamycin 10 ppm, day 16): +
growth (+) or no growth (−) ([1]; T 60, natamycin 10 ppm, day 17): +
growth (+) or no growth (−) ([1]; T 60, natamycin 10 ppm, day 50): +
growth (+) or no growth (−) ([1]; T 65, natamycin 5 ppm, day 1): −
growth (+) or no growth (−) ([1]; T 65, natamycin 5 ppm, day 2): −
growth (+) or no growth (−) ([1]; T 65, natamycin 5 ppm, day 3): −
growth (+) or no growth (−) ([1]; T 65, natamycin 5 ppm, day 4): −
growth (+) or no growth (−) ([1]; T 65, natamycin 5 ppm, day 5): −
growth (+) or no growth (−) ([1]; T 65, natamycin 5 ppm, day 6): −
growth (+) or no growth (−) ([1]; T 65, natamycin 5 ppm, day 7): −
growth (+) or no growth (−) ([1]; T 65, natamycin 5 ppm, day 8): −
growth (+) or no growth (−) ([1]; T 65, natamycin 5 ppm, day 9): −
growth (+) or no growth (−) ([1]; T 65, natamycin 5 ppm, day 10): −
growth (+) or no growth (−) ([1]; T 65, natamycin 5 ppm, day 11): −
growth (+) or no growth (−) ([1]; T 65, natamycin 5 ppm, day 12): −
growth (+) or no growth (−) ([1]; T 65, natamycin 5 ppm, day 13): −
growth (+) or no growth (−) ([1]; T 65, natamycin 5 ppm, day 14): −
growth (+) or no growth (−) ([1]; T 65, natamycin 5 ppm, day 15): −
growth (+) or no growth (−) ([1]; T 65, natamycin 5 ppm, day 16): −
growth (+) or no growth (−) ([1]; T 65, natamycin 5 ppm, day 17): −
growth (+) or no growth (−) ([1]; T 65, natamycin 5 ppm, day 50): −
growth (+) or no growth (−) ([1]; T 65, natamycin 10 ppm, day 1): −
growth (+) or no growth (−) ([1]; T 65, natamycin 10 ppm, day 2): −
growth (+) or no growth (−) ([1]; T 65, natamycin 10 ppm, day 3): −
growth (+) or no growth (−) ([1]; T 65, natamycin 10 ppm, day 4): −
growth (+) or no growth (−) ([1]; T 65, natamycin 10 ppm, day 5): −
growth (+) or no growth (−) ([1]; T 65, natamycin 10 ppm, day 6): −
growth (+) or no growth (−) ([1]; T 65, natamycin 10 ppm, day 7): −
growth (+) or no growth (−) ([1]; T 65, natamycin 10 ppm, day 8): −
growth (+) or no growth (−) ([1]; T 65, natamycin 10 ppm, day 9): −
growth (+) or no growth (−) ([1]; T 65, natamycin 10 ppm, day 10): −
growth (+) or no growth (−) ([1]; T 65, natamycin 10 ppm, day 11): −
growth (+) or no growth (−) ([1]; T 65, natamycin 10 ppm, day 12): −
growth (+) or no growth (−) ([1]; T 65, natamycin 10 ppm, day 13): −
growth (+) or no growth (−) ([1]; T 65, natamycin 10 ppm, day 14): −
growth (+) or no growth (−) ([1]; T 65, natamycin 10 ppm, day 15): −
growth (+) or no growth (−) ([1]; T 65, natamycin 10 ppm, day 16): −
growth (+) or no growth (−) ([1]; T 65, natamycin 10 ppm, day 17): −
growth (+) or no growth (−) ([1]; T 65, natamycin 10 ppm, day 50): −
growth (+) or no growth (−) ([1]; T 70, natamycin 5 ppm, day 1): −
growth (+) or no growth (−) ([1]; T 70, natamycin 5 ppm, day 2): −
growth (+) or no growth (−) ([1]; T 70, natamycin 5 ppm, day 3): −
growth (+) or no growth (−) ([1]; T 70, natamycin 5 ppm, day 4): −
growth (+) or no growth (−) ([1]; T 70, natamycin 5 ppm, day 5): −
growth (+) or no growth (−) ([1]; T 70, natamycin 5 ppm, day 6): −
growth (+) or no growth (−) ([1]; T 70, natamycin 5 ppm, day 7): −
growth (+) or no growth (−) ([1]; T 70, natamycin 5 ppm, day 8): −
growth (+) or no growth (−) ([1]; T 70, natamycin 5 ppm, day 9): −
growth (+) or no growth (−) ([1]; T 70, natamycin 5 ppm, day 10): −
growth (+) or no growth (−) ([1]; T 70, natamycin 5 ppm, day 11): −
growth (+) or no growth (−) ([1]; T 70, natamycin 5 ppm, day 12): −
growth (+) or no growth (−) ([1]; T 70, natamycin 5 ppm, day 13): −
growth (+) or no growth (−) ([1]; T 70, natamycin 5 ppm, day 14): −
growth (+) or no growth (−) ([1]; T 70, natamycin 5 ppm, day 15): −
growth (+) or no growth (−) ([1]; T 70, natamycin 5 ppm, day 16): −
growth (+) or no growth (−) ([1]; T 70, natamycin 5 ppm, day 17): −
growth (+) or no growth (−) ([1]; T 70, natamycin 5 ppm, day 50): −
growth (+) or no growth (−) ([1]; T 70, natamycin 10 ppm, day 9): −
growth (+) or no growth (−) ([1]; T 70, natamycin 10 ppm, day 10): −
growth (+) or no growth (−) ([1]; T 70, natamycin 10 ppm, day 11): −
growth (+) or no growth (−) ([1]; T 70, natamycin 10 ppm, day 12): −
growth (+) or no growth (−) ([1]; T 70, natamycin 10 ppm, day 13): −
growth (+) or no growth (−) ([1]; T 70, natamycin 10 ppm, day 14): −
growth (+) or no growth (−) ([1]; T 70, natamycin 10 ppm, day 15): −
growth (+) or no growth (−) ([1]; T 70, natamycin 10 ppm, day 16): −
growth (+) or no growth (−) ([1]; T 70, natamycin 10 ppm, day 17): −
growth (+) or no growth (−) ([1]; T 70, natamycin 10 ppm, day 50): −
